In publication PMC4061482 (Frontiers in Oncology, 2014):
Like-named read-outs stand apart in the source and are kept apart here.

How the values were obtained:
other AKR1C isoforms = experiment: Inhibition of isolated AKR1C enzymes; format: biochemical; details: 10 μM; unpublished data
T47D cells [1] = experiment: Cell proliferation (sulforhodamine B), 5 days; format: cell-based, human; details: 10 μM, estrone up to 10 nM
Procedure: (§1) Cells were seeded into 96-well plates in hormone-deprived media at appropriate seeding densities (5000–20,000 cells per well) to reach approximately 70% confluency at the time of sampling and left to settle for 48 h at 37°C and 5% CO2. […] The plates were returned to the incubator for 5 days before fixing in 10% trichloroacetic acid (Merck Millipore) at 4°C for 1 h and staining with 0.4% sulforhodamine B (Sigma-Aldrich) in 1% acetic acid for 30 min in the dark at room temperature. Plates were washed in 1% acetic acid, dried, and incubated with unbuffered Tris base (10 mM; Serva) for 30 min on a plate shaker in the dark to solubilize the stain. The plates were read on a BioTek EL808 microplate reader at an absorbance of 490 nm with a reference wavelength of 450 nm.
(§2) Neither androstenedione nor estrone-stimulated cell proliferation in the HCT116 AKR1C3 and wild-type cell lines (data not shown).

T47D AKR1C3 cells [2] = experiment: Cell proliferation (sulforhodamine B), 5 days; format: cell-based, human; details: 10 μM, estrone up to 10 nM
Procedure: as §1, §2

all cell lines = experiment: Unstimulated cell proliferation (sulforhodamine B), 5 days, all cell lines; format: cell-based, human; details: 10 μM, all cell lines except MCF7
Procedure: as §1
(§3) Finally, we investigated whether inhibiting AKR1C3-dependent testosterone or 17β-estradiol production could prevent androstenedione- or estrone-stimulated cell proliferation in CRPC or ER-positive breast cancer cells.

22RV1 cells [3] = experiment: Cell proliferation (sulforhodamine B), 5 days; format: cell-based, human; details: 10 μM
Procedure: as §1, §3

22RV1 cells [4] = experiment: PSA concentration after androstenedione stimulation; format: cell-based; details: Homo sapiens, 10 nM androstenedione, 24 h, read-out: Inhibition of PSA formation attributable to androstenedione stimulation
Procedure: (§4) Cells were seeded at 20,000 cells per well (LAPC4, LAPC4 AKR1C3) or 50,000 cells per well (22RV1) into 96-well plates in hormone-deprived media and left to settle for 24 h at 37°C and 5% CO2. […] The plates were returned to the incubator for 24 h, before the cell supernatant was removed and frozen for PSA analysis. Determination of total PSA concentration was carried out at LabPLUS, Auckland City Hospital, by immunoassay on a Cobas® e601 analyzer according to manufacturer’s instructions (Roche).
(§5) Next, PSA expression was determined in the CRPC cell lines that were sensitive to SN33638-mediated inhibition of testosterone (LAPC4 AKR1C3 and 22RV1 with LAPC4 wild-type cells acting as a negative control) as a biomarker of AR activity. […] Androstenedione stimulation promoted PSA production in all three cell lines, with the highest PSA levels observed in LAPC4 AKR1C3 cells.

LAPC4 AKR1C3 cells = experiment: as above; format: cell-based; details: Homo sapiens, LAPC4, 24 h, read-out: Inhibition of PSA formation attributable to androstenedione stimulation
Procedure: as §4, §5

22RV1 cells [5] = experiment: Testosterone ELISA after androstenedione stimulation; format: cell-based, human
Procedure: Cells were seeded into 96-well plates in hormone-deprived media at appropriate seeding densities [10,000–50,000 cells per well for all lines except HCC1500 (100,000 cells per well; 11β-PGF2α ELISA)] to reach approximately 70% confluency at the time of sampling and were left to settle for 24 h at 37°C and 5% CO2. […] removed for analysis of 11β-PGF2α, testosterone, or 17β-estradiol by ELISA as per manufacturer’s instructions (11β-PGF2α and testosterone ELISA, Cayman Chemical Company; 17β-estradiol ELISA, Oxford Biomedical Research), and cells were fixed for sulforhodamine B analysis as described below. Each ELISA plate was read at a wavelength of 405 nm (11β-PGF2α and testosterone) or 650 nM (17β-estradiol) on a SpectraMax M2 microplate reader (Molecular Devices) and quantitated against a standard curve generated in hormone-deprived culture media. Cross-reactivity to PGD2, androstenedione, or estrone was accounted for by adding these to cell-free wells of each ELISA plate.
Since AKR1C3 has been implicated in the development of CRPC because of its ability to produce testosterone intratumorally from circulating androstenedione, we determined testosterone concentrations in the prostate cancer cell lines and known high and low AKR1C3-expressing cells after stimulation with androstenedione for 24 h.

MCF7 cells [6] = experiment: Cell proliferation (sulforhodamine B), 5 days; format: cell-based, human
Procedure: as §1, §3, §2

T47D cells [7] = experiment: 17β-estradiol ELISA after estrone stimulation; format: cell-based, human; details: 10 μM; 28 nM estrone, 24 h
Procedure: (§6) Cells were seeded into 96-well plates in hormone-deprived media at appropriate seeding densities [10,000–50,000 cells per well for all lines except HCC1500 (100,000 cells per well; 11β-PGF2α ELISA)] to reach approximately 70% confluency at the time of sampling and were left to settle for 24 h at 37°C and 5% CO2. Inhibitors were added to the plates at single or multiple concentrations for 1 h prior to administration of equimolar (28 nM) concentrations of PGD2 (11β-PGF2α ELISA), androstenedione (testosterone ELISA), or estrone (17β-estradiol ELISA). The plates were returned to the incubator for a further 24 h before cell supernatant was removed for analysis of 11β-PGF2α, testosterone, or 17β-estradiol by ELISA as per manufacturer’s instructions (11β-PGF2α and testosterone ELISA, Cayman Chemical Company; 17β-estradiol ELISA, Oxford Biomedical Research), and cells were fixed for sulforhodamine B analysis as described below. Each ELISA plate was read at a wavelength of 405 nm (11β-PGF2α and testosterone) or 650 nM (17β-estradiol) on a SpectraMax M2 microplate reader (Molecular Devices) and quantitated against a standard curve generated in hormone-deprived culture media. Cross-reactivity to PGD2, androstenedione, or estrone was accounted for by adding these to cell-free wells of each ELISA plate.
(§7) 17β-estradiol is predominantly produced from estrone by 17β-HSD1 in breast tissue in post-menopausal women ([44]). Although less catalytically efficient than 17β-HSD1, AKR1C3 can also convert estrone to 17β-estradiol ([10], [12], [14]), and therefore, may play a role in ER-positive breast cancer development. To investigate the activity of AKR1C3 in 17β-estradiol production, ER-positive breast cancer cells and known high and low AKR1C3-expressing cells were stimulated with estrone for 24 h prior to determination of 17β-estradiol levels by ELISA.

T47D AKR1C3 cells [8] = experiment: 17β-estradiol ELISA after estrone stimulation; format: cell-based, human; details: 10 μM; 28 nM estrone, 24 h
Procedure: as §6, §7

MCF7 cells [9] = experiment: 17β-estradiol ELISA after estrone stimulation; format: cell-based, human; details: Homo sapiens, MCF7; 10 μM; 28 nM estrone, 24 h; read-out: Inhibition of 17β-estradiol formation
Procedure: as §6, §7

In the case of `CC1CCCCN1S(=O)(=O)c1ccc(N2CCCC2=O)cc1` (stereo not drawn) [SN33638], the “Inhibition against each isolated enzyme (other AKR1C isoforms)” value (other AKR1C isoforms) is reported as less than 14%, the “Effect on estrone-stimulated cell proliferation” value (T47D cells [1]) is reported as “not significantly inhibited” and the “Effect on estrone-stimulated cell proliferation” value (T47D AKR1C3 cells [2]) is reported as “not significantly inhibited”. The “Effect on unstimulated cell proliferation” value (all cell lines) was “no effect”, the “Effect on androstenedione-stimulated cell proliferation” value (22RV1 cells [3]) was “no effect” and the inhibition at 10 µM (22RV1 cells [4]) was 44.9%. The inhibition at 10 µM (LAPC4 AKR1C3 cells; 1 nM androstenedione) was 90.8%, the inhibition at 10 µM (LAPC4 AKR1C3 cells; 10 nM androstenedione) was 57.4% and the “Effect on testosterone levels” value (22RV1 cells [5]; 5 days after stimulation with up to 10 nM androstenedione, data not shown) was “no inhibitory effect”. The inhibition at 10 µM (22RV1 cells [5]; Homo sapiens, 22Rv1, 10 μM, 28 nM androstenedione, 24 h, read-out: Inhibition of testosterone levels) was 50.8%, the “Reduction of unstimulated cell proliferation” value (MCF7 cells [6]; 10 μM) was 7.3% and the inhibition at 10 µM (MCF7 cells [6]; Homo sapiens, MCF7, 120 h, 10 nM estrone, read-out: Inhibition of estrone-stimulated cell proliferation) was 14.9%. For the same compound, the “Effect on 17β-estradiol levels” value (T47D cells [7]) was “no effect”, the “Effect on 17β-estradiol levels” value (T47D AKR1C3 cells [8]) was “no effect” and the inhibition at 10 µM (MCF7 cells [9]) was 16%.
